Like-named read-outs stand apart in the source and are kept apart here.
Assay: Phase 1 Part A food effect (high-fat / low-fat breakfast) on single-dose pharmacokinetics
Type: in vivo, human
Conditions: for Test/Reference ratio of LS means, AUC0-t / Test/Reference ratio of LS means, AUC0-∞ / Test/Reference ratio of LS means, Cmax: 400 mg Fed; for % AUCextrap: arithmetic mean; for Tmax / AUC(0-t) / AUC(0-inf) / Cmax / Vd/F / half-life: human, plasma, oral
Text: This study was a randomized, blinded, placebo-controlled, ascending-dose study to evaluate the safety, tolerability, and pharmacokinetic (PK) of single (Part A) and multiple (Part B) doses of Compound I in healthy subjects. In addition, the effects of a standard high-fat breakfast, standard low-fat breakfast, and pretreatment and co-administration of a proton pump inhibitor (PPI) on the tolerability and PK of a single dose of Compound I were investigated in 2 groups in Part A. All subjects received their full dose of Compound I, administered as the appropriate number of either 25 or 200 mg tablets. The high fat breakfast comprised the following: total energy: 895 kcal; total fat: 61 g; total protein: 41 g; total carbohydrate: 46 g. The low fat breakfast comprised the following: total energy: 611 kcal; total fat: 14.7 g; total protein: 20.3 g; total carbohydrate: 106.3 g.
For Group A4, doses (400 mg Compound I or placebo) during Treatment Period 1 were administered in a fasted state on the morning of Day 1. Doses in Treatment Period 2 were administered 30 minutes after starting, and within approximately 10 minutes of completing, a high-fat standard breakfast on the morning of Day 1. Doses during Treatment Period 3 were administered 30 minutes after starting, and within approximately 10 minutes of completing a low-fat standard meal on the morning of Day 1. Doses during Treatment Period 4 were administered on Day 1 after an overnight fast and following administration of a PPI (rabeprazole 20 mg) for 3 days (given as 3 daily [QD] doses, with the final PPI dose at 2 hours prior to study drug administration on Day 1). Subjects in Group A4 received the same Compound I or placebo treatment in all treatment periods, such that each subject received up to 4 single doses of Compound I or placebo.
For Group A5, doses (800 mg Compound I or placebo) during Treatment Period 1 were administered in a fasted state on the morning of Day 1, doses during Treatment Period 2 were administered 30 minutes after starting a low-fat standard breakfast on the morning of Day 1, and doses during Treatment Period 3 were administered on Day 1 after a low-fat meal and following administration of a PPI (rabeprazole 20 mg) for 3 days (given as 3 QD doses, with the final PPI dose at 2 hours prior to study drug administration on Day 1). Subjects in Group A5 received the same Compound I or placebo treatment in all treatment periods, such that each subject received up to 3 single doses of Compound I or placebo.
For Group A4, each subject participated in 3 additional treatment periods, each separated by a minimum of 7 days. Group A4 resided at the CRU from Day −1 to Day 4 of Treatment Periods 2, 3, and 4. For Group A5, each subject participated in 2 additional treatment periods, each separated by a minimum of 7 days. Group A5 resided at the CRU from Day −1 to Day 4 of Treatment Periods 2 and 3. All subjects returned for a Follow-up visit between 5 to 14 days after their final dose of study treatment.
In Part A, all doses in Treatment Period 1 were administered after an overnight fast of at least 8 hours. For the A4 cohort, in Treatment Periods 2 and 3, doses were administered 30 minutes after starting and approximately 10 minutes after completing a high- or low-fat breakfast. In Treatment Period 4, the dose was administered after an overnight fast and following administration of a PPI (PPI was comprised of 3 doses of rabeprazole 20 mg, starting on Day −2 and with the final dose 2 hours before Compound I administration on Day 1). For Group A5, doses during Treatment Period 2 were administered 30 minutes after starting and approximately 10 minutes after completing a low-fat standard breakfast on the morning of Day 1, and doses during Treatment Period 3 were administered on Day 1 after a low-fat meal and following administration of a PPI for 3 days (given as 3 QD doses, with the final PPI dose at 2 hours prior to study drug administration on Day 1).

[1] = High-fat (Test) vs 400 mg Fasted (Reference)
[2] = High-fat (Test) vs 400 mg Fed, Low-fat (Reference)
[3] = Low-fat (Test) vs 400 mg Fasted (Reference)
[4] = 400 mg single dose (A4), Fed, High-fat
[5] = 400 mg single dose (A4), Fed, Low-fat
[6] = 800 mg single dose (A5), Fed, Low-fat
[7] = 800 mg, low-fat fed state vs fasted
[8] = Table 3, 4th section, Low-fat (Test) vs 400 mg Fasted (Reference), n = 6
[9] = high-fat fed state from the fasted state

Test/Reference ratio of LS means, AUC0-t [1]: 149.0%
Test/Reference ratio of LS means, AUC0-∞ [1]: 145.8%
Test/Reference ratio of LS means, Cmax [1]: 168.9%
Test/Reference ratio of LS means, AUC0-t [2]: 108.7%
Test/Reference ratio of LS means, AUC0-∞ [2]: 108.2%
Test/Reference ratio of LS means, Cmax [2]: 102.7%
Test/Reference ratio of LS means, AUC0-t [3]: 137.1%
Test/Reference ratio of LS means, AUC0-∞ [3]: 134.7%
Test/Reference ratio of LS means, Cmax [3]: 164.4%
AUC0-t (norm) [4]: 14000 (hr*ng/mL)/(mg/kg)
AUC0-∞ (norm) [4]: 14100 (hr*ng/mL)/(mg/kg)
CL/F [4]: 83.0 mL/min
CL/F(norm) [4]: 1.19 (mL/min)/kg
Cmax (norm) [4]: 1330 ng/mL/mg/kg
λZ [4]: 0.0861 h⁻¹
% AUCextrap [4]: 0.213%
AUC0-t (norm) [5]: 12900 (hr*ng/mL)/(mg/kg)
AUC0-∞ (norm) [5]: 13000 (hr*ng/mL)/(mg/kg)
CL/F [5]: 89.8 mL/min
CL/F(norm) [5]: 1.28 (mL/min)/kg
Cmax (norm) [5]: 1300 ng/mL/mg/kg
λZ [5]: 0.0852 h⁻¹
% AUCextrap [5]: 0.691%
AUC0-t (norm) [6]: 14300 (hr*ng/mL)/(mg/kg)
AUC0-∞ (norm) [6]: 14400 (hr*ng/mL)/(mg/kg)
CL/F [6]: 83.3 mL/min
CL/F(norm) [6]: 1.16 (mL/min)/kg
Cmax (norm) [6]: 1200 ng/mL/mg/kg
λZ [6]: 0.0793 h⁻¹
% AUCextrap [6]: 0.395%
Ratio of fed to fasted, AUC0-t [7]: 214.0%
Ratio of fed to fasted, AUC0-∞ [7]: 203.3%
Ratio of fed to fasted, Cmax [7]: 225.5%
Test/Reference ratio of LS means, AUC0-t [8]: 214.0%
Test/Reference ratio of LS means, AUC0-∞ [8]: 203.3%
Test/Reference ratio of LS means, Cmax [8]: 225.5%
Food effect on bioavailability (administration with food (high fat or low fat meal)): positive food effect
Increase in AUC0-t [9]: 49.0%
Increase in AUC0-∞ [9]: 45.8%
Increase in Cmax [9]: 68.9%
Tmax (400 mg, 400 mg single dose (A4), Fed, High-fat, median, read-out: tmax): 3.5 h
AUC(0-t) (400 mg, 400 mg single dose (A4), Fed, High-fat, read-out: AUC0-t): 80200 ng·h/mL
AUC(0-inf) (400 mg, 400 mg single dose (A4), Fed, High-fat, read-out: AUC0-∞): 80300 ng·h/mL
Cmax (400 mg, 400 mg single dose (A4), Fed, High-fat, read-out: Cmax): 7620 ng/mL
Vd/F (400 mg, 400 mg single dose (A4), Fed, High-fat, read-out: Vz/F): 57.8 L
Vd/F (400 mg, 400 mg single dose (A4), Fed, High-fat, read-out: Vz/F(norm)): 0.826 L/kg
half-life (400 mg, 400 mg single dose (A4), Fed, High-fat, read-out: t1/2 (converted)): 8.05 h
Tmax (400 mg, 400 mg single dose (A4), Fed, Low-fat, median, read-out: tmax): 2.5 h
AUC(0-t) (400 mg, 400 mg single dose (A4), Fed, Low-fat, read-out: AUC0-t): 73700 ng·h/mL
AUC(0-inf) (400 mg, 400 mg single dose (A4), Fed, Low-fat, read-out: AUC0-∞): 74200 ng·h/mL
Cmax (400 mg, 400 mg single dose (A4), Fed, Low-fat, read-out: Cmax): 7420 ng/mL
Vd/F (400 mg, 400 mg single dose (A4), Fed, Low-fat, read-out: Vz/F): 63.3 L
Vd/F (400 mg, 400 mg single dose (A4), Fed, Low-fat, read-out: Vz/F(norm)): 0.904 L/kg
half-life (400 mg, 400 mg single dose (A4), Fed, Low-fat, read-out: t1/2 (converted)): 7.52 h
AUC(0-t) (400 mg, Table 3, 4th section, 400 mg Compound I Fasted, n = 6, read-out: LS Means AUC0-t (Reference)): 74500 ng·h/mL
AUC(0-inf) (400 mg, Table 3, 4th section, 400 mg Compound I Fasted, n = 6, read-out: LS Means AUC0-∞ (Reference)): 78700 ng·h/mL
Cmax (400 mg, Table 3, 4th section, 400 mg Compound I Fasted, n = 6, read-out: LS Means Cmax (Reference)): 5910 ng/mL
Cmax (400 mg, Table 3, 4th section, 400 mg Compound I Fed, Low-fat, n = 6, read-out: LS Means Cmax (Test)): 13300 ng/mL
AUC(0-t) (400 mg, Table 3, 4th section, head as printed:, n = 6, read-out: LS Means AUC0-t (Test)): 159000 ng·h/mL
AUC(0-inf) (400 mg, Table 3, 4th section, head as printed:, n = 6, read-out: LS Means AUC0-∞ (Test)): 160000 ng·h/mL
Tmax (400 mg, high-fat fed state, read-out: tmax values, range): 1.5 to 6 h
Tmax (800 mg, 800 mg single dose (A5), Fed, Low-fat, median, read-out: tmax): 3 h
AUC(0-t) (800 mg, 800 mg single dose (A5), Fed, Low-fat, read-out: AUC0-t): 159000 ng·h/mL
AUC(0-inf) (800 mg, 800 mg single dose (A5), Fed, Low-fat, read-out: AUC0-∞): 160000 ng·h/mL
Cmax (800 mg, 800 mg single dose (A5), Fed, Low-fat, read-out: Cmax): 13300 ng/mL
Vd/F (800 mg, 800 mg single dose (A5), Fed, Low-fat, read-out: Vz/F): 63 L
Vd/F (800 mg, 800 mg single dose (A5), Fed, Low-fat, read-out: Vz/F(norm)): 0.876 L/kg
half-life (800 mg, 800 mg single dose (A5), Fed, Low-fat, read-out: t1/2 (converted)): 8.74 h
half-life (800 mg, 400 and 800 mg, high- and low-fat states, read-out: Geometric mean t1/2, range): 7.5 to 8.7 h
Tmax (low-fat fed state, read-out: tmax values, range): 1 to 4 h
Increase in AUC0-t (low-fat fed state (vs fasted)): 37.1%
Increase in AUC0-∞ (low-fat fed state (vs fasted)): 34.7%
Increase in Cmax (low-fat fed state (vs fasted)): 64.4%
SMILES: Cn1cc(-c2cn(-c3ccc(OC(F)(F)F)cc3)c(=O)c3ncn(C)c23)cn1 [Compound I]

— patent publication US11925624B2, “Methods of administering anti-fibrotic therapy” (GENENTECH, INC., priority 2016, dated 2024)
